Results taken from ChEMBL document CHEMBL1142017, “Structure-activity relationships and sub-type selectivity in an oxabicyclic estrogen receptor alpha/beta agonist scaffold” (Bioorg Med Chem Lett, 2005).

Tests used:
Estrogen receptor beta [1] = molecular target: T1, Estrogen receptor beta (Homo sapiens, UniProt Q92731)
Description: (§1) In vitro agonist activity for estrogen receptor beta expressed in COS-1 cells

Estrogen receptor = molecular target: T2, Estrogen receptor (Homo sapiens, UniProt P03372)
T2 sequence (P03372 whole entry): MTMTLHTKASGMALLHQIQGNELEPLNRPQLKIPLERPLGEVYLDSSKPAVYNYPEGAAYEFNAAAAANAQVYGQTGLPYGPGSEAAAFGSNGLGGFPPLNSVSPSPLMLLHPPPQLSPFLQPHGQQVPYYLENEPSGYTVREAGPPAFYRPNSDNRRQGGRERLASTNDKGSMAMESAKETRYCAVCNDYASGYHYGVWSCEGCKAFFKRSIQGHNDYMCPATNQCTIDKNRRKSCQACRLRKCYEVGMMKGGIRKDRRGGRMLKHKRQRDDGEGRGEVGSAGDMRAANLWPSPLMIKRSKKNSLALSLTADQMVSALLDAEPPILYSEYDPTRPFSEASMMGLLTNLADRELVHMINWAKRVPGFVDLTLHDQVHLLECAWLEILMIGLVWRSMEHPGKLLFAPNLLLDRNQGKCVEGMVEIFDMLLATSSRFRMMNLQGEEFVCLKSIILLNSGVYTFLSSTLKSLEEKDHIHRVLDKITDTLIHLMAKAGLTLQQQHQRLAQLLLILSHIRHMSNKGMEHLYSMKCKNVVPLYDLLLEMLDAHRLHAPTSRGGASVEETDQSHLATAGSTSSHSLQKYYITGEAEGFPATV
Description: In vitro agonist activity for estrogen receptor alpha expressed in COS-1 cells

[2] = molecular target: T3, Estrogen receptor (Rattus norvegicus) (UniProt P06211+Q62986); test: Effect on uterine wet weight in ovariectomized female rats after 30 mg/kg oral gavage dose; format: functional, organism-based; design: dose 30 mg/kg
[3] = molecular target: T3, Estrogen receptor (Rattus norvegicus); test: Effect on uterine wet weight in ovariectomized female rats; format: functional
Estrogen receptor beta [4] = molecular target: T1, Estrogen receptor beta; details: cos-1
Description: as §1

T1 sequence (Q92731 whole entry): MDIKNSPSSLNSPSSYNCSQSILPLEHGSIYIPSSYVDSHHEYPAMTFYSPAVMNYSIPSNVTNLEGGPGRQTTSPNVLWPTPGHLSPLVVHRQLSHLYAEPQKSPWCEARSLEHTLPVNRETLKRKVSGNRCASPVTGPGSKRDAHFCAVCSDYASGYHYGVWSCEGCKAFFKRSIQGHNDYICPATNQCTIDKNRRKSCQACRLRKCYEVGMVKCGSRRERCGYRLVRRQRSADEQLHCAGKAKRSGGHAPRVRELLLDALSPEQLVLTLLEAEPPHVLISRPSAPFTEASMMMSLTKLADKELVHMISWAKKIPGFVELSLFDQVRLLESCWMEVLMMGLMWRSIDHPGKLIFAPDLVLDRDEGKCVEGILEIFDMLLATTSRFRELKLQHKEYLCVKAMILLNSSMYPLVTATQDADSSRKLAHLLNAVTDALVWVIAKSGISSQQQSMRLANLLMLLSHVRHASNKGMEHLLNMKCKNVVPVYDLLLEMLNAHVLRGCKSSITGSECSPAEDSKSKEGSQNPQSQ

Row | EC50 (Estrogen receptor beta [1]) | EC50 (Estrogen receptor) | ED50 [2] | ED50 [3] | EC50 (Estrogen receptor beta [4]) | Structure (SMILES)
1 | 5.3 nM | 11 nM |  |  |  | CC1=CC[C@@]2(CO)CO[C@@H](c3ccc(O)cc3Cl)[C@@H]1C2 (racemic)
2 | 25 nM | 21 nM |  |  |  | CC1=CC(C)(C)[C@@]2(O)CO[C@@H](c3ccc(O)cc3Cl)[C@@H]1C2 (racemic)
3 | 10 nM | 39 nM |  |  |  | CC1=CC[C@@]2(CO)CO[C@@H](c3ccc(O)cc3F)[C@@H]1C2 (racemic)
4 | 6 nM | 1 nM |  |  |  | CC1=CC[C@]2(O)C[C@H]1[C@H](c1ccc(O)cc1Cl)OC2(C)C (racemic)
5 |  |  | 0.16 mg/kg/day |  |  | C[C@]12CC[C@@H]3c4ccc(OS(=O)(=O)O)cc4CC[C@H]3[C@@H]1CCC2=O
6 | 67 nM | 43 nM |  |  |  | CC1=CC[C@@]2(CO)CO[C@@H](c3ccc(O)cc3Cl)[C@]1(C)C2 (racemic)
7 | 6.1 nM | 18 nM |  |  |  | CC1=CC[C@@]2(CO)CO[C@@H](c3ccc(O)cc3Cl)[C@@H]1C2 (stereo in doubt; (-)-26) [listing 1 of 2 here]
8 | 79 nM | 92 nM |  |  |  | CC1=CC[C@@]2(CO)CO[C@@H](c3ccc(O)cc3C)[C@@H]1C2 (racemic)
9 | 12 nM | 50 nM |  |  |  | CC1=CC[C@@]2(CO)CO[C@@H](c3ccc(O)cc3F)[C@]1(C)C2 (racemic)
10 |  |  |  | 3.44 mg/kg/day |  | CC1=CC[C@@]2(CO)CO[C@@H](c3ccc(O)cc3Cl)[C@@H]1C2 (stereo in doubt; (-)-26) [listing 2 of 2 here]
11 | 46 nM | 138 nM |  |  |  | CC1=CC[C@@]2(CO)CO[C@@H](c3ccc(O)cc3Cl)[C@@H]1C2 (stereo in doubt; (+)-25)
12 | 1.4 nM | 1.1 nM |  |  |  | CC1=CC[C@]2(O)C[C@H]1[C@H](c1ccc(O)cc1F)OC2(C)C (racemic)
13 | 3.1 nM | 19 nM |  |  |  | CC1=CC[C@@]2(CO)CO[C@@H](c3ccc(O)cc3F)[C@@H]1C2 (stereo in doubt; (-)-30)
14 | 180 nM | 21 nM |  |  |  | CC1=CC[C@@]2(CO)CO[C@@H](c3ccc(O)cc3F)[C@@H]1C2 (stereo in doubt; (+)-29)
15 |  | 218 nM |  |  | 318 nM | CC1=CC[C@@H]2C[C@H]1[C@H](c1ccc(O)c(C)c1)OC2(C)C (stereo in doubt)
16 | 275 nM | 173 nM |  |  |  | CC1=CC[C@@]2(CO)CO[C@@H](c3ccc(O)cc3O)[C@@H]1C2 (racemic)
17 | 3050 nM | 1980 nM |  |  |  | COc1cc([C@@H]2OC[C@]3(CO)CC=C(C)[C@H]2C3)ccc1O (racemic)

The next lines start with the compound.

Row | Structure (SMILES) | EC50 (Estrogen receptor beta [1]) | EC50 (Estrogen receptor) | ED50 [2] | ED50 [3] | EC50 (Estrogen receptor beta [4])
18 | CC1=CC(C)(C)[C@@]2(O)CO[C@@H](c3ccc(O)cc3)[C@@H]1C2 (racemic) | 183 nM | 141 nM |  |  | 
19 | CC1=CC[C@]2(O)C[C@H]1[C@H](c1ccc(O)c(F)c1)OC2(C)C (racemic) | 7.2 nM | 0.6 nM |  |  | 
20 | CC1=CC[C@@]2(CO)CO[C@@H](c3ccc(O)c(Br)c3)[C@@H]1C2 (racemic) | 485 nM | 336 nM |  |  | 
21 | CC1=CC[C@@]2(CO)CO[C@@H](c3ccc(O)c(F)c3)[C@@H]1C2 (stereo in doubt; (-)-28) | 57 nM | 254 nM |  |  | 
22 | CC1=CC[C@]2(O)C[C@H]1[C@H](c1ccc(O)cc1)OC2(C)C (racemic) | 9.2 nM | 1.6 nM |  |  | 
23 | CC1=CC[C@@]2(O)CO[C@@H](c3ccc(O)cc3)[C@@H]1C2(C)C (racemic) | 24 nM | 59 nM |  |  | 
24 | CC1=CC[C@@H]2C[C@H]1[C@H](c1ccc(O)cc1)OC2(C)C (stereo in doubt) | 195 nM | 211 nM |  |  | 
25 | CC1=CC[C@@]2(CO)CO[C@@H](c3ccc(O)c(C)c3)[C@@H]1C2 (racemic) | 305 nM | 137 nM |  |  | 
26 | CC1=CC[C@@]2(CO)CO[C@@H](c3ccc(O)cc3)[C@]1(C)C2 (racemic) | 39 nM | 203 nM |  |  | 
27 | CC1=CC[C@@]2(CO)CO[C@@H](c3cc(C)c(O)c(C)c3)[C@@H]1C2 (racemic) | 2830 nM | 743 nM |  |  | 
28 | CC1=CC[C@@]2(CO)CO[C@@H](c3ccc(O)c(Cl)c3)[C@@H]1C2 (racemic) | 197 nM | 36 nM |  |  | 
29 | CC1=CC[C@@]2(CO)CO[C@@H](c3ccc(O)c(F)c3)[C@@H]1C2 (racemic) | 25 nM | 4.6 nM |  |  | 
30 | CC1=CC[C@@H]2C[C@H]1[C@H](c1ccc(O)cc1)OC2(C)C (stereo in doubt; (+)-31) | 418 nM | 203 nM |  |  | 
31 | CC1=CC[C@@H]2C[C@H]1[C@H](c1ccc(O)c(C)c1)OC2(C)C (stereo in doubt; (+)-32) | 318 nM | 143 nM |  |  | 
32 | CC1=CC[C@@]2(CO)CO[C@@H](c3ccc(O)c(F)c3)[C@@H]1C2 (stereo in doubt; (+)-27) | 40 nM | 2.6 nM |  |  | 
33 | CC1=CC[C@@]2(CO)CO[C@@H](c3ccc(O)c(F)c3)[C@]1(C)C2 (racemic) | 6 nM | 68 nM |  |  | 
34 | CC1=CC[C@@]2(CO)CO[C@@H](c3ccc(O)c(O)c3)[C@@H]1C2 (racemic) | 3160 nM | 2410 nM |  |  | 
